Data taken from PubChem BioAssay AID292 (DTP/NCI, 2004).
Values joined by “and” are separate entries in the source; they are usually repeats but may differ in a detail not shown here. Equal values may be shown once. Toxic doses and inconclusive results are not listed.

Test system: B6C3F1 mice, ip Sarcoma M5076, median survival T/C
Assay: NCI In Vivo Anticancer Drug Screen. Data for tumor model Sarcoma M5076 (intraperitoneal) in B6C3F1 mice
Conditions: endpoint: median survival time, higher = longer survival
Procedure: The antitumor activity of compounds was measured in mice bearing transplantable tumors. Survival or tumor size were measured and the results are expressed as the measurement made in the treated group (T) divided by the measurement made in the vehicle treated control group (C). The tumor model used in this assay is Sarcoma M5076 (intraperitoneal) in B6C3F1 mice

[1] = dose: 50.0 mg/kg/injection, schedule: Q04DX004 (ip), vehicle: saline with Tween-80
[2] = dose: 100.0 mg/kg/injection, schedule: Q04DX004 (ip), vehicle: saline with Tween-80
[3] = dose: 200.0 mg/kg/injection, schedule: Q04DX004 (ip), vehicle: saline with Tween-80
[4] = dose: 400.0 mg/kg/injection, schedule: Q04DX004 (ip), vehicle: saline with Tween-80
[5] = dose: 3.0 mg/kg/injection, schedule: Q04DX004 (ip), vehicle: saline
[6] = dose: 6.0 mg/kg/injection, schedule: Q04DX004 (ip), vehicle: saline
[7] = dose: 12.0 mg/kg/injection, schedule: Q04DX004 (ip), vehicle: saline
[8] = dose: 12.5 mg/kg/injection, schedule: Q04DX004 (ip), vehicle: Klucel (hydroxypropylcellulose) (HPC)
[9] = dose: 25.0 mg/kg/injection, schedule: Q04DX004 (ip), vehicle: Klucel (hydroxypropylcellulose) (HPC)
[10] = dose: 50.0 mg/kg/injection, schedule: Q04DX004 (ip), vehicle: Klucel (hydroxypropylcellulose) (HPC)
[11] = dose: 100.0 mg/kg/injection, schedule: Q04DX004 (ip), vehicle: Klucel (hydroxypropylcellulose) (HPC)
[12] = dose: 200.0 mg/kg/injection, schedule: Q04DX004 (ip), vehicle: Klucel (hydroxypropylcellulose) (HPC)
[13] = dose: 400.0 mg/kg/injection, schedule: Q04DX004 (ip), vehicle: Klucel (hydroxypropylcellulose) (HPC)
[14] = dose: 25.0 mg/kg/injection, schedule: Q04DX004 (ip), vehicle: water
[15] = dose: 50.0 mg/kg/injection, schedule: Q04DX004 (ip), vehicle: water
[16] = dose: 100.0 mg/kg/injection, schedule: Q04DX004 (ip), vehicle: water
[17] = dose: 200.0 mg/kg/injection, schedule: Q04DX004 (ip), vehicle: water
[18] = dose: 37.5 mg/kg/injection, schedule: Q04DX004 (ip), vehicle: Klucel (hydroxypropylcellulose) (HPC)
[19] = dose: 75.0 mg/kg/injection, schedule: Q04DX004 (ip), vehicle: Klucel (hydroxypropylcellulose) (HPC)
[20] = dose: 150.0 mg/kg/injection, schedule: Q04DX004 (ip), vehicle: Klucel (hydroxypropylcellulose) (HPC)
[21] = dose: 12.5 mg/kg/injection, schedule: Q04DX004 (ip), vehicle: water
[22] = dose: 25.0 mg/kg/injection, schedule: Q04DX004 (ip), vehicle: saline with Tween-80

SMILES: Nc1cc2c(cc1Br)-c1c(C(=O)O)cccc1C2O (stereo not drawn)
- T/C [1]: 96 % of control
- T/C (dose: 50.0 mg/kg/injection, schedule: Q04DX004 (ip), vehicle: sodium bicarbonate): 94 % of control
- T/C [2]: 97 % of control
- T/C (dose: 100.0 mg/kg/injection, schedule: Q04DX004 (ip), vehicle: sodium bicarbonate): 100 % of control
- T/C [3]: 101 % of control
- T/C (dose: 200.0 mg/kg/injection, schedule: Q04DX004 (ip), vehicle: sodium bicarbonate): 109 % of control
- T/C [4]: 109 % of control
- T/C (dose: 400.0 mg/kg/injection, schedule: Q04DX004 (ip), vehicle: sodium bicarbonate): 107 % of control
- T/C (dose: 683.0 mg/kg/injection, schedule: Q04DX004 (ip), vehicle: saline with Tween-80): 103 % of control
- T/C (dose: 800.0 mg/kg/injection, schedule: Q04DX004 (ip), vehicle: sodium bicarbonate): 118 % of control

SMILES: COC(COC(=O)N1CCN(C=O)CC1)C1=C(N2CC2)C(=O)C(C)=C(N2CC2)C1=O (stereo not drawn)
- T/C (dose: 1.5 mg/kg/injection, schedule: Q04DX004 (ip), vehicle: saline): 124 % of control
- T/C [5]: 152 % of control
- T/C (dose: 3.6 mg/kg/injection, schedule: Q04DX004 (ip), vehicle: saline): 150 % of control
- T/C [6]: 176 % of control and 190 % of control
- T/C (dose: 10.0 mg/kg/injection, schedule: Q04DX004 (ip), vehicle: saline): 245 % of control
- T/C [7]: 151 % of control

SMILES: Cc1nc2ccccc2c(N)c1-c1cc(C)c2c(C)nc3ccccc3c2n1
- T/C (dose: 6.25 mg/kg/injection, schedule: Q04DX004 (ip), vehicle: Klucel (hydroxypropylcellulose) (HPC)): 97 % of control
- T/C [8]: 91 % of control
- T/C [9]: 90 % of control and 94 % of control and 101 % of control
- T/C [10]: 92 % of control and 98 % of control
- T/C [11]: 96 % of control and 100 % of control
- T/C [12]: 99 % of control
- T/C [13]: 106 % of control

SMILES: CC(C)CCC(=O)c1ccoc1
- T/C (dose: 0.25 mg/kg/injection, schedule: Q03HX012 (ip), vehicle: saline with Tween-80): 96 % of control
- T/C (dose: 0.5 mg/kg/injection, schedule: Q03HX012 (ip), vehicle: saline with Tween-80): 96 % of control
- T/C (dose: 1.0 mg/kg/injection, schedule: Q03HX012 (ip), vehicle: saline with Tween-80): 90 % of control
- T/C (dose: 2.0 mg/kg/injection, schedule: Q03HX012 (ip), vehicle: saline with Tween-80): 99 % of control

SMILES: C#CCN(Cc1ccc2nc(N)[nH]c(=O)c2c1)c1ccc(C(=O)NC(CCC(=O)O)C(=O)O)cc1 (stereo not drawn)
- T/C [14]: 98 % of control
- T/C [15]: 98 % of control and 118 % of control
- T/C [16]: 120 % of control
- T/C [17]: 162 % of control
- T/C (dose: 400.0 mg/kg/injection, schedule: Q04DX004 (ip), vehicle: water): 152 % of control and 175 % of control

SMILES: O=C1CNC(=O)N1CN1CCOCC1
- T/C [10]: 110 % of control
- T/C [11]: 106 % of control
- T/C [12]: 108 % of control
- T/C [13]: 115 % of control
- T/C (dose: 800.0 mg/kg/injection, schedule: Q04DX004 (ip), vehicle: Klucel (hydroxypropylcellulose) (HPC)): 106 % of control

SMILES: CC1=C(/C=C/C(C)=C/C=C/C(C)=C/C=O)C(C)(C)CCC1
- T/C (dose: 75.0 mg/kg/injection, schedule: Q04DX004 (ip), vehicle: saline + alcohol): 104 % of control
- T/C (dose: 150.0 mg/kg/injection, schedule: Q04DX004 (ip), vehicle: saline + alcohol): 96 % of control

SMILES: COc1ccc(-n2c(SCC(=O)NC(=O)Nc3ccccc3)nc3c(Br)cc(Br)cc3c2=O)cc1
- T/C [18]: 91 % of control
- T/C [19]: 93 % of control
- T/C [20]: 89 % of control
- T/C (dose: 600.0 mg/kg/injection, schedule: Q04DX004 (ip), vehicle: Klucel (hydroxypropylcellulose) (HPC)): 90 % of control

SMILES: Cc1ccc(-c2nnc3cc(C)n4nnnc4n23)cc1
- T/C (dose: 17.5 mg/kg/injection, schedule: Q04DX004 (ip), vehicle: Klucel (hydroxypropylcellulose) (HPC)): 97 % of control
- T/C (dose: 35.0 mg/kg/injection, schedule: Q04DX004 (ip), vehicle: Klucel (hydroxypropylcellulose) (HPC)): 99 % of control
- T/C (dose: 70.0 mg/kg/injection, schedule: Q04DX004 (ip), vehicle: Klucel (hydroxypropylcellulose) (HPC)): 99 % of control
- T/C (dose: 140.0 mg/kg/injection, schedule: Q04DX004 (ip), vehicle: Klucel (hydroxypropylcellulose) (HPC)): 101 % of control
- T/C (dose: 280.0 mg/kg/injection, schedule: Q04DX004 (ip), vehicle: Klucel (hydroxypropylcellulose) (HPC)): 97 % of control

SMILES: COc1ccc(CCN2C(=O)C(=O)N(C)C2=O)cc1OC
- T/C [9]: 89 % of control
- T/C [10]: 99 % of control
- T/C [13]: 92 % of control

SMILES: O=NNc1ccc2cccnc2n1
- T/C [21]: 104 % of control
- T/C [14]: 116 % of control
- T/C [15]: 151 % of control
- T/C [16]: 151 % of control and 161 % of control
- T/C [17]: 174 % of control

SMILES: O=S1(=O)C(c2ccc(F)cc2)=C(O)c2cc3ccccc3nc21
- T/C (dose: 17.19 mg/kg/injection, schedule: Q04DX004 (ip), vehicle: sodium bicarbonate): 97 % of control
- T/C (dose: 34.38 mg/kg/injection, schedule: Q04DX004 (ip), vehicle: sodium bicarbonate): 93 % of control
- T/C (dose: 68.75 mg/kg/injection, schedule: Q04DX004 (ip), vehicle: sodium bicarbonate): 93 % of control

SMILES: O=C1C2CC(Cl)C(SSC3CC4C(=O)N(SC(Cl)(Cl)C(Cl)Cl)C(=O)C4CC3Cl)CC2C(=O)N1SC(Cl)(Cl)C(Cl)Cl (stereo not drawn)
- T/C (dose: 12.5 mg/kg/injection, schedule: Q04DX004 (ip), vehicle: saline with Tween-80): 97 % of control
- T/C [22]: 95 % of control
- T/C [1]: 98 % of control and 105 % of control
- T/C [2]: 90 % of control and 97 % of control
- T/C [3]: 102 % of control and 117 % of control
- T/C [4]: 110 % of control
- T/C (dose: 800.0 mg/kg/injection, schedule: Q04DX004 (ip), vehicle: saline with Tween-80): 109 % of control

SMILES: O=S(=O)(c1cccc(N=C=S)c1)c1cccc(N=C=S)c1
- T/C [8]: 99 % of control
- T/C [9]: 94 % of control
- T/C [10]: 103 % of control
- T/C [11]: 99 % of control

SMILES: CC1(C)CC(OS(C)(=O)=O)CC(C)(C)N1O
- T/C (dose: 18.75 mg/kg/injection, schedule: Q04DX004 (ip), vehicle: Klucel (hydroxypropylcellulose) (HPC)): 99 % of control
- T/C [18]: 100 % of control
- T/C [19]: 102 % of control
- T/C [20]: 102 % of control

SMILES: C/C(=C\c1ccccc1)C1C(C#N)C(=O)NC(=O)C1C#N (stereo not drawn)
- T/C [10]: 100 % of control
- T/C [11]: 113 % of control
- T/C [12]: 106 % of control
- T/C [13]: 106 % of control

SMILES: O=C(Nc1cccnc1)c1ccc([N+](=O)[O-])s1
- T/C [5]: 102 % of control
- T/C [6]: 97 % of control
- T/C [7]: 96 % of control
- T/C (dose: 24.0 mg/kg/injection, schedule: Q04DX004 (ip), vehicle: saline): 87 % of control
- T/C (dose: 48.0 mg/kg/injection, schedule: Q04DX004 (ip), vehicle: saline): 89 % of control

SMILES: OCC1OC(n2cnc3cc(Cl)c(Cl)cc32)C(O)C1O (stereo not drawn)
- T/C (dose: 150.0 mg/kg/injection, schedule: Q04DX004 (ip), vehicle: saline with Tween-80): 104 % of control
- T/C (dose: 300.0 mg/kg/injection, schedule: Q04DX004 (ip), vehicle: saline with Tween-80): 109 % of control
- T/C (dose: 600.0 mg/kg/injection, schedule: Q04DX004 (ip), vehicle: saline with Tween-80): 107 % of control

SMILES: CN1CCN(c2ccc3nc(-c4ccc5nc(-c6ccc(O)cc6)[nH]c5c4)[nH]c3c2)CC1
- T/C (dose: 28.0 mg/kg/injection, schedule: Q04DX004 (ip), vehicle: saline): 96 % of control
- T/C (dose: 56.0 mg/kg/injection, schedule: Q04DX004 (ip), vehicle: saline): 92 % of control
- T/C (dose: 112.0 mg/kg/injection, schedule: Q04DX004 (ip), vehicle: saline): 100 % of control
- T/C (dose: 225.0 mg/kg/injection, schedule: Q04DX004 (ip), vehicle: saline): 86 % of control

SMILES: CN1[C@H]2C=CC(=O)[C@]1(Cl)[C@H]1C(=O)N(c3ccccc3)C(=O)[C@@H]21
- T/C [22]: 102 % of control and 107 % of control
- T/C [1]: 101 % of control and 107 % of control
- T/C [2]: 95 % of control and 100 % of control
- T/C [3]: 94 % of control
- T/C [4]: 101 % of control

SMILES: CC1(O)C=CC(=O)C=C1
- T/C [21]: 104 % of control
- T/C [14]: 102 % of control and 113 % of control
- T/C [15]: 109 % of control and 114 % of control
